Experimental data reported in patent US5389663A, “1-(1h-1,2,4-triazole-yl)-2-propanol compounds” (Takeda Chemical Industries, Ltd., priority 1991, dated 1995).

Tests used:
Candida albicans = assay: Protective effect against Candida albicans infection in mice; format: in vivo, Crj:CDF1 mice; settings: 168 h, po, minimum lethal dose of Candida albicans iv, drug once immediately after infection, survival 7 days after infection
Text: Test Method: Five-week old Crj:CDF1 mice were inoculated with the minimum lethal dose of Candida albicans intravenously. The test drug was given once immediately after infection. The effectiveness of the drug was expressed in ED50 values calculated by the Reed and Muench method from the survival rate 7 days after infection.

[1] = system: Candida albicans IFO 0583; assay: Paper disc agar diffusion, growth inhibition zone, Candida albicans IFO 0583; format: cell-based; settings: Candida albicans, IFO0583, 48 h, Table 5; Medium A, 28° C., two-day culture, 1000 μ/ml, 8 mm disc; read-out: Diameter of growth-inhibition zone
Procedure: Evaluation of the antifungal activities of the compound of formula (I) was conducted by the following method: a sheet of filter paper disc (manufactured by Toyo Seisakusho, 8 mm in diameter) soaked in a […] solution of a compound of formula (I) in methanol was placed on an agar plate containing various fungi, which was incubated at 28° C. for two days, and the diameter of the growth inhibition zone around the filter paper disc was measured. The following culture media were used: A: yeast nitrogen base agar medium (pH 7.0) B: Sabouraud agar medium
cpd. No. (Medium A, 28° C., two-day culture)

Row | Structure (SMILES) | ED50 (Candida albicans) [mg/kg] | zone of inhibition at 1000 µg/mL [1] [mm]
1 | CCNS(=O)(=O)[C@H](C)[C@](O)(Cn1cncn1)c1ccc(F)cc1F [Compound 14, N-ethyl-[(2R,3R)-3-(2,4-difluorophenyl)-3-hydroxy-4-(1H-1,2,4-triazol-1-yl)-2-butane]sulfonamide] | 5 | 38
2 | CCCNS(=O)(=O)[C@H](C)[C@](O)(Cn1cncn1)c1ccc(F)cc1F [Compound 16, N-propyl-[(2R,3R)-3-(2,4-difluorophenyl)-3-hydroxy-4-(1H-1,2,4-triazol-1-yl)-2butane]sulfonamide] | 5 | 40
3 | C[C@H]([C@](O)(Cn1cncn1)c1ccc(F)cc1F)S(=O)(=O)NCC(F)(F)F [Compound 39, N-(2,2,2-trifluoroethyl)-[(2R,3R)-3-(2,4-difluorophenyl)-3-hydroxy-4-(1H-1,2,4-triazol-1-yl)-2-butane]sulfonamide] | 8 | 40
4 | C[C@H]([C@](O)(Cn1cncn1)c1ccc(F)cc1F)S(=O)(=O)N(C)CC(F)(F)F [Compound 46, N-methyl-N-(2,2,2-trifluoroethyl)-[(2R,3R)-3-(2,4-difluorophenyl)-3-hydroxy-4-(1H-1,2,4-triazol-1-yl)-2-butane]sulfonamide] | 8 | 45
5 | CCN(C)S(=O)(=O)[C@H](C)[C@](O)(Cn1cncn1)c1ccc(F)cc1F [Compound 48, N-ethyl-N-methyl[(2R,3R)-3-(2,4-difluorophenyl)-3-hydroxy-4-(1H-1,2,4-triazol-1-yl)-2-butane]sulfonamide] | 11.3 | 48
6 | C[C@@H](NS(C)(=O)=O)[C@](O)(Cn1cncn1)c1ccc(F)cc1F [Compound 49, N-[(2R,3R)-3-(2,4-difluorophenyl)-3-hydroxy-4-(1H-1,2,4-triazol-1-yl)-2-butyl]methanesulfonamide] | 1.8 | 30
7 | C[C@@H](NS(=O)(=O)c1ccc([N+](=O)[O-])cc1)[C@](O)(Cn1cncn1)c1ccc(F)cc1F [Compound 51] | 8 | 38
8 | C[C@@H](N(C)S(C)(=O)=O)[C@](O)(Cn1cncn1)c1ccc(F)cc1F [Compound 53, N-[(2R,3R)-3-(2,4-difluorophenyl)-3-hydroxy-4-(1H-1,2,4-triazol-1-yl) -2-butyl]-N-methylmethanesulfornamide] | 3.5 | 40
9 | C[C@@H](N(C)S(=O)(=O)CC(F)(F)F)[C@](O)(Cn1cncn1)c1ccc(F)cc1F [Compound 54] | 3.5 | 40
10 | C[C@@H](NS(=O)(=O)CC(F)(F)F)[C@](O)(Cn1cncn1)c1ccc(F)cc1F [Compound 55] | 2 | 35
11 | C[C@H]([C@](O)(Cn1cncn1)c1ccc(F)cc1F)S(=O)(=O)NCc1ccccc1 [Compound 58, N-benzyl-[(2R,3R)-3-(2,4-difluorophenyl)-3-hydroxy-4-(1H-1,2,4-triazol-1-yl)-2-butane]sulfonamide] | 8 | 40
12 | C[C@H]([C@](O)(Cn1cncn1)c1ccc(F)cc1F)S(=O)(=O)NC(c1ccccc1)c1ccccc1 [Compound 59, N-diphenylmethyl-[(2R,3R)-3-(2,4-difluorophenyl)-3-hydroxy-4-(1H-1,2,4-triazol-1-yl)-2-butane]sulfonamide] | 11.3 | 30
13 | C[C@H]([C@](O)(Cn1cncn1)c1ccc(F)cc1F)S(=O)(=O)N(C)Cc1cccnc1 [Compound 64, N-(3-pyridylmethyl)-N-methyl-[(2R,3R)-3-(2,4-difluorophenyl)-3-hydroxy-4-(1H-1,2,4-triazol-1-yl)-2-butane]sulfonamide] | 2.8 | 40
14 | C[C@H]([C@](O)(Cn1cncn1)c1ccc(F)cc1F)S(N)(=O)=O [Compound 65, (2R,3R)-3-(2,4-difluorophenyl)-3-hydroxy-4-(1H-1,2,4-triazol-1-yl)-2-butanesulfonamide] | 11.3 | 30
15 | C[C@H]([C@](O)(Cn1cncn1)c1ccc(F)cc1F)S(=O)(=O)N1CCN(c2ccc(OCC(F)(F)F)cc2)CC1 [Compound 70, 4-[(2R,3R)-3-(2,4-difluorophenyl)-3-hydroxy-4-(1H-1,2,4-triazol-1-yl)-2-butanesulfonyl]-1-[4-(2,2,2-trifluoroethoxy)phenyl]piperazine] | 8 | 42
16 | C[C@H]([C@](O)(Cn1cncn1)c1ccc(F)cc1F)S(=O)(=O)N1CCN(c2ccc(F)cc2)CC1 [Compound 71, 4-[(2R,3R)-3-(2,4-difluorophenyl)-3-hydroxy-4-(1H-1,2,4-triazol-1-yl)-2-butanesulfonyl]-1(4-fluorophenyl)piperazine] | 8 | 47
17 | C[C@H]([C@](O)(Cn1cncn1)c1ccc(F)cc1F)S(=O)(=O)N1CCN(c2ccc(C(F)(F)F)cc2)CC1 [Compound 73, 4-[(2R,3R)-3-(2,4-difluorophenyl)-3-hydroxy-4-(1H-1,2,4-triazol-1-yl)-2-butanesulfonyl]-1-(4-trifluoromethylphenyl)piperazine] | 6.4 | 32
18 | C[C@H]([C@](O)(Cn1cncn1)c1ccc(F)cc1F)S(=O)(=O)N(C)Cc1nccn1C [Compound 75] | 8 | 34
19 | C[C@H]([C@](O)(Cn1cncn1)c1ccc(F)cc1F)S(=O)(=O)N(C)Cc1ccncc1 [Compound 76] | 8 | 40
20 | C[C@H]([C@](O)(Cn1cncn1)c1ccc(F)cc1F)S(=O)(=O)N(C)Cc1nccs1 [Compound 78] | 8 | 40
21 | C[C@H]([C@](O)(Cn1ccnc1)c1ccc(F)cc1F)S(=O)(=O)N(C)Cc1ccc(C(F)(F)F)cc1 [Compound 86, N-methyl-N-(4-trifluoromethylbenzyl)-[(2R,3R)-3-(2,4-difluorophenyl)-3-hydroxy-4-(1-imidazolyl)-2-butane]sulfonamide] | 8 | 35
22 | C[C@H]([C@](O)(Cn1cncn1)c1ccc(F)cc1F)S(=O)(=O)N1CCN(c2nc(Cl)ncc2F)CC1 [Compound 91, 1-[(2R,3R)-3-(2,4-difluorophenyl)-3-hydroxy-4-(1H-1,2,4-triazol-1-yl)-2-butanesulfonyl]-4-(2-chloro-5-fluoropyrimidin-4-yl)piperazine] | 11.3 | 50
